{"source": "patent US8000781B2", "about": "“Method of evaluating effect of prolonging QT interval in electrocardiogram” (Eisai R&D Management Co., Ltd., priority 2005, dated 2011)", "key": {"[1]": {"test_system": "hamster under mixed anesthesia with pentobarbital and xylazine", "settings": "n=5; for Influence on the QRS interval / Influence on the RR interval: over the doses tested"}, "anesthetized dogs": {"test_system": "anesthetized dogs", "settings": "calculated on the basis of the results of the cited report; cited from earlier work"}}, "note": "Like-named read-outs stand apart in the source and are kept apart here."}
{"smiles": "COc1cc(N)c(Cl)cc1C(=O)NC1CCN(CCCOc2ccc(F)cc2)CC1OC", "note": "(centres unmarked) [cisapride]", "values": [{"measurement": "Degree of prolongation of the QT interval", "setting": "[1]; 100 μg/kg iv", "result": "about 20%"}, {"measurement": "Influence on the PQ interval", "setting": "[1]; iv, doses tested 1, 10 and 100 μg/kg", "result": "did not significantly affect"}, {"measurement": "Influence on the QRS interval", "setting": "[1]; iv", "result": "did not significantly affect"}, {"measurement": "Influence on the RR interval", "setting": "[1]; iv", "result": "did not significantly affect"}, {"measurement": "Single dose for intravenous administration providing 10% of prolongation of the duration of monophasic action potential", "setting": "anesthetized dogs", "result": 0.1, "unit": "mg/kg"}]}
{"smiles": "CC(C)(C)c1ccc(C(O)CCCN2CCC(C(O)(c3ccccc3)c3ccccc3)CC2)cc1", "note": "(centres unmarked) [terfenadine]", "values": [{"measurement": "Degree of prolongation of the QT interval", "setting": "[1]; 1 mg/kg iv", "result": "about 20%"}, {"measurement": "Influence on the QRS interval", "setting": "[1]; iv", "result": "did not significantly affect"}, {"measurement": "Influence on the RR interval", "setting": "[1]; iv", "result": "did not significantly affect"}]}
